ChEMBL document CHEMBL2417443, “Efficient synthesis and antiproliferative activity of novel thioether-substituted flavonoids” (Eur J Med Chem, 2013)

Assays:
Format in all cases: functional, cell-based
MCF7 = experiment: Cytotoxicity against human MCF7 cells after 72 hrs by MTT assay; settings: MCF7, 72 h
HEp-2 = experiment: Cytotoxicity against human Hep2 cells after 72 hrs by MTT assay; settings: HEp-2, 72 h
[1] = Cytotoxicity against human MDA-MB-435S cells after 72 hrs by MTT assay
SW480 = experiment: Cytotoxicity against human SW480 cells after 72 hrs by MTT assay; settings: SW480, 72 h
[2] = Cytotoxicity against human LM7 cells after 72 hrs by MTT assay; settings: LM7, 72 h
HeLa = experiment: Cytotoxicity against human HeLa cells after 72 hrs by MTT assay

SMILES | IC50 (MCF7) | IC50 (HEp-2) | IC50 [1] | IC50 (SW480) | IC50 [2] | IC50 (HeLa)
Cc1nnc(SCc2cc(=O)c3cc(Cl)ccc3o2)s1 | > 25 µM | > 25 µM | > 25 µM | > 25 µM | > 25 µM | > 25 µM
Cc1cc(C)n2nc(SCc3nnc(SCc4coc5ccccc5c4=O)s3)nc2n1 | 9.5 µM | 5.3 µM | 1.1 µM | 1.5 µM | 2.5 µM | > 25 µM
Cc1cc(C)n2nc(SCc3nnc(SCc4coc5ccccc5c4=O)n3-c3ccccc3)nc2n1 | > 25 µM | 22.1 µM | 2.9 µM | 12.4 µM | 16.6 µM | > 25 µM
Cc1cc(C)nc(SCn2cnc3ccccc3c2=O)n1 | > 25 µM | > 25 µM | > 25 µM | > 25 µM | > 25 µM | > 25 µM
Cc1cc(C)n2nc(SCc3cc(=O)c4ccccc4o3)nc2n1 | > 25 µM | > 25 µM | > 25 µM | > 25 µM | > 25 µM | > 25 µM
Cc1ccc2oc(CSc3nc4ccccc4s3)cc(=O)c2c1 | > 25 µM | > 25 µM | > 25 µM | > 25 µM | > 25 µM | > 25 µM
O=c1c2ccccc2ncn1CSc1nc2ccccc2o1 | > 25 µM | > 25 µM | > 25 µM | > 25 µM | > 25 µM | > 25 µM
Cc1nnc(SCc2cc(=O)c3ccccc3o2)s1 | > 25 µM | > 25 µM | > 25 µM | > 25 µM | > 25 µM | > 25 µM
O=c1cc(CSc2nc3ccccc3o2)c2ccc(O)c(O)c2o1 | > 25 µM | > 25 µM | > 25 µM | > 25 µM | > 25 µM | > 25 µM
Cc1cc(C)n2nc(SCc3nnc(SCc4cc(=O)oc5c4ccc4ccccc45)s3)nc2n1 | > 25 µM | > 25 µM | > 25 µM | > 25 µM | > 25 µM | > 25 µM
Cc1ccc2oc(CSc3nc4nc(C)cc(C)n4n3)cc(=O)c2c1 | > 25 µM | > 25 µM | > 25 µM | > 25 µM | > 25 µM | > 25 µM
O=c1[nH]cc(F)c(=O)[nH]1 [FLUOROURACIL] | 3.6 µM | – | – | – | 18.6 µM | 3.4 µM
Cc1cc(C)n2nc(SCc3cc(=O)c4cc(Cl)ccc4o3)nc2n1 | > 25 µM | > 25 µM | > 25 µM | > 25 µM | > 25 µM | > 25 µM
Cc1cc(C)n2nc(SCc3nnc(SCc4cc(=O)c5ccccc5o4)s3)nc2n1 | > 25 µM | > 25 µM | > 25 µM | > 25 µM | > 25 µM | > 25 µM
Cc1nnc(SCc2coc3ccc(Cl)cc3c2=O)s1 | 13.4 µM | 4.2 µM | 2.2 µM | 3.2 µM | 7.6 µM | 9.7 µM
Cc1nnc(Sc2coc3ccccc3c2=O)s1 | > 50 µM | > 50 µM | > 50 µM | > 50 µM | > 50 µM | > 50 µM
O=c1c2ccccc2ncn1CSc1nc2ccccc2s1 | > 25 µM | > 25 µM | > 25 µM | > 25 µM | > 25 µM | > 25 µM
Cc1nnc(Sc2c(C)oc3ccccc3c2=O)o1 | > 50 µM | > 50 µM | > 50 µM | > 50 µM | > 50 µM | > 50 µM
Cc1nnc(SCc2coc3ccc(Cl)cc3c2=O)o1 | 5 µM | 6.4 µM | 3.3 µM | 3.5 µM | 8.7 µM | 3.2 µM
Cc1cc(C)n2nc(SCc3nnc(SCc4coc5ccccc5c4=O)n3N)nc2n1 | > 25 µM | 7.1 µM | 3 µM | 3.6 µM | 1.9 µM | > 25 µM
Cc1cc(C)nc(SCc2coc3ccccc3c2=O)n1 | > 25 µM | 55.1 µM | > 25 µM | > 25 µM | > 25 µM | > 25 µM
Cc1cc(C)n2nc(SCc3nnc(SCc4cc(=O)oc5cc(O)cc(C)c45)s3)nc2n1 | > 25 µM | > 25 µM | > 25 µM | > 25 µM | > 25 µM | > 25 µM
O=c1c2cccc(Cl)c2ncn1CSc1nc2ccccc2s1 | > 25 µM | > 25 µM | > 25 µM | > 25 µM | > 25 µM | > 25 µM
Cc1cc(C)nc(SCc2cc(=O)c3ccccc3o2)n1 | > 25 µM | > 25 µM | > 25 µM | > 25 µM | > 25 µM | > 25 µM
Cc1ccc2oc(CSc3nnc(C)s3)cc(=O)c2c1 | > 25 µM | > 25 µM | > 25 µM | > 25 µM | > 25 µM | > 25 µM
